Test results reported in patent US20260306460A1, “COMPOSITION FOR REMOVING AND INHIBITING SENESCENT CELLS, AND USES THEREOF” (LIFECEUTIX CO., LTD., priority 2023, published 2026).

What was measured:
senescent cells = experiment: Viability of senescent cells (CellTiter-Glo), Example 17, Table 13; settings: Homo sapiens, read-out: Survival (%)
Procedure: Cells induced to undergo senescence by doxorubicin treatment were treated with test compound at designated concentrations and measured using the CellTiter-Glo Luminescent Cell Viability Assay (Promega).

senescent A549 cells = experiment: Viability of senescent A549 cells (CellTiter-Glo), Example 18, Table 15; settings: Homo sapiens, A549, read-out: Survival (%)
Procedure: Senescence-induced cancer cells treated with doxorubicin were treated with the test compound at designated concentrations, and cell viability was measured using the CellTiter-Glo Luminescent Cell Viability Assay (Promega).

Row | SMILES | viability at 1.1 µM (senescent cells) [%] | viability at 1.1 µM (senescent A549 cells) [%] | viability at 10 µM (senescent cells) [%] | viability at 30 µM (senescent cells) [%] | viability at 10 µM (senescent A549 cells) [%] | viability at 30 µM (senescent A549 cells) [%] | viability at 90 µM (senescent A549 cells) [%] | viability at 90 µM (senescent cells) [%]
1 | CN(C)C[C@@H]1CCn2cc(c3ccccc32)C2=C(C(=O)NC2=O)c2cn(c3ccccc23)CCO1 [LX-9339, Ruboxistaurin] | 55.6 | 49.2 | – | – | – | – | – | –
2 | CC(=O)NCCOC(=O)[C@H](Oc1cccc(C(F)(F)F)c1)c1ccc(Cl)cc1 [LX-9409, Arhalofenate] | 80.5 | 72.7 | 65.7 | 15.3 | 51.9 | 8.7 | – | –
3 | CCc1ccc(CCOc2ccc(CC3SC(=O)NC3=O)cc2)nc1 (stereo not drawn) [LX-9422, Pioglitazone] | 94.7 | 104 | 56.2 | 6.7 | 62.8 | 15.8 | – | –
4 | CN1CCCC1 [LX-9425, N-methyl pyrrolidine] | 102 | 97.5 | 97.5 | 66.8 | 100 | 68.2 | – | –
5 | COc1ccccc1OCC(O)CN1CCN(CC(=O)Nc2c(C)cccc2C)CC1 (stereo not drawn) [LX-9565, Ranolazine] | 78.9 | 97 | 52.3 | 6.1 | 67.3 | 34.1 | 3.6 | –
6 | CC(C)(CCCCCC(O)CCCCCC(C)(C)C(=O)O)C(=O)O [LX-9602, Bempedoic acid] | 113 | 101 | 102 | 92.2 | 96.4 | 75.4 | 3.8 | 11.1
7 | CCCCC[C@H](O)CC[C@@H]1[C@H]2Cc3cccc(OCC(=O)O)c3C[C@H]2C[C@H]1O [LX-9713, Treprostinil] | 1.8 | 28.4 | – | – | – | – | – | –
8 | COc1c(C)c2c(c(O)c1C/C=C(\C)CCC(=O)O)C(=O)OC2 [LX-9725, Mycophenolic acid] | 49.3 | 62.4 | – | – | – | – | – | –
9 | CC[C@H]1[C@@H](O)[C@@H]2[C@H](CC[C@]3(C)[C@@H]([C@H](C)CCC(=O)O)CC[C@@H]23)[C@@]2(C)CC[C@@H](O)C[C@@H]12 [LX-9732, Obeticholic Acid] | 95.7 | 97.5 | 46.4 | 3.8 | 51.3 | 7.9 | – | –
